From patent US20230339981A1, “KRAS G12D MODULATING COMPOUNDS” (priority 2022, published 2023)

Assays:
[1] = biological target: GDP-loaded KRAS G12D (Homo sapiens (Human), UniProt P01116, G12D); test: KRAS G12D (GDP) biochemical assay (TR-FRET probe displacement); assay type: binding; settings: 2 hours
In short: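 Compound pre-incubated 30 min with GDP-loaded KRAS G12D in 50 mM Hepes pH 7.4, 150 mM NaCl, 5 mM MgCl2, 0.005% Tween-20, then Eu-streptavidin and TR-FRET probe added. After 2 h at room temperature, TR-FRET ratio read; IC50 is 50% ratio decrease, sigmoidal fit.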

[2] = tested on: GP2D (KRAS G12D) cells; test: 2D cell viability assay (CellTiter-Glo); assay type: cell-based; settings: GP2d, 96 h, 4 days
In short: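 GP2D (KRAS G12D) cells, 1000/well in RPMI + 10% FBS, were plated onto compound (1:3 DMSO series) and grown 4 days at 37 °C, 5% CO2 in 2D. CellTiter-Glo luminescence was read; EC50 is the concentration giving 50% signal decrease, from sigmoidal fit.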

Chain of GDP-loaded KRAS G12D (P01116-2 other isoform, or with tags, fused parts or gaps G12D): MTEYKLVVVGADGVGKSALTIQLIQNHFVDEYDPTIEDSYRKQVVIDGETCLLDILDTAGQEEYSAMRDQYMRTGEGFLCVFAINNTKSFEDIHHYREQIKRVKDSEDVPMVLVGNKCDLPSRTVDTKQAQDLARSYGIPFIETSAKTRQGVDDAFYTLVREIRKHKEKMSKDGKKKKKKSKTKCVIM

SMILES | IC50 [1] | EC50 [2]
C#Cc1c(F)ccc2cc(O)cc(-c3nc4c5c(nc(OC[C@@]67CCCN6C[C@H](F)C7)nc5c3F)N3C[C@H]5CC[C@H](N5)[C@H]3[C@H](C)O4)c12 [Example 53, 5-ethynyl-6-fluoro-4-((5S,5aS,6S,9R)-1-fluoro-12-(((2R,7aS)-2-fluorotetrahydro-1H-pyrrolizin-7a(5H)-yl)methoxy)-5-methyl-5a,6,7,8,9,10-hexahydro-5H-4-oxa-3,10a,11,13,14-pentaaza-6,9-methanonaphtho[1,8-ab]heptalen-2-yl)naphthalen-2-ol] | 0.1 nM | 2 nM
C#Cc1c(F)ccc2cccc(-c3nc4c5c(nc(OCC67CCCN6C[C@H](OC(F)(F)F)C7)nc5c3F)N3C[C@H]5CC[C@H](N5)[C@H]3CC4)c12 (stereo partly drawn) [Example 137, (5aR,6S,9R)-2-(8-ethynyl-7-fluoronaphthalen-1-yl)-1-fluoro-12-((cis-2-(trifluoromethoxy)tetrahydro-1H-pyrrolizin-7a(5H)-yl)methoxy)-4,5,5a,6,7,8,9,1O-octahydro-3,10a,11,13,14-pentaaza-6,9-methanonaphtho[1,8-ab]heptalene] | 24.5 nM | 100 nM
C#Cc1c(F)ccc2cc(O)cc(-c3nc4c5c(nc(OC[C@@]67CCCN6C[C@H](OC(C(F)(F)F)(C(F)(F)F)C(F)(F)F)CC7)nc5c3F)N3C[C@H]5CC[C@H](N5)[C@H]3CO4)c12 [Example 56, 5-ethynyl-6-fluoro-4-((5aS,6S,9R)-1-fluoro-12-(((6R,8aS)-6-((1,1,1,3,3,3-hexafluoro-2-(trifluoromethyl)propan-2-yl)oxy)hexahydroindolizine-8a(1H)-yl)methoxy)-5a,6,7,8,9,10-hexahydro-5H-4-oxa-3,10a,11,13,14-pentaaza-6,9-methanonaphtho[1,8-ab]heptalen-2-yl)naphthalen-2-ol] | 13 nM | 50 nM
C#Cc1c(F)ccc2cc(O)cc(-c3nc4c5c(nc(OC[C@@]67CCCN6C[C@H](F)C7)nc5c3F)N3C[C@H]5CC[C@H](N5)[C@H]3[C@H](C3CC3)O4)c12 [Example 71, 4-((5S,5aS,6S,9R)-5-cyclopropyl-1-fluoro-12-(((2R,7aS)-2-fluorotetrahydro-1H-pyrrolizin-7a(5H)-yl)methoxy)-5a,6,7,8,9,10-hexahydro-5H-4-oxa-3,10a,11,13,14-pentaaza-6,9-methanonaphtho[1,8-ab]heptalen-2-yl)-5-ethynyl-6-fluoronaphthalen-2-ol] | 4 nM | 81 nM
C#Cc1c(F)ccc2cccc(-c3nc4c5c(nc(OC[C@@]67CCCN6C[C@H](F)C7)nc5c3F)N3C[C@H]5CC[C@H](N5)[C@@H]3[C@H](C)CC4)c12 [Example 159, (6R,6aS,7S,10R)-2-(8-ethynyl-7-fluoronaphthalen-1-yl)-1-fluoro-13-(((2R,7aS)-2-fluorotetrahydro-1H-pyrrolizin-7a(5H)-yl)methoxy)-6-methyl-5,6,6a,7,8,9,10,11-octahydro-4H-3,11a,12,14,15-pentaaza-7,10-methanocyclohepta[4,5]cycloocta[1,2,3-de]naphthalene] | 100 nM | 100 nM
C#Cc1c(F)ccc2cccc(-c3nc4c5c(nc(OC[C@@]67CCCN6[C@H](COc6cc(C(F)(F)F)ncn6)CC7)nc5c3F)N3C[C@H]5CC[C@H](N5)[C@H]3CC[C@H]4C)c12 [Example 203, (4R,6aR,7S,10R)-2-(8-ethynyl-7-fluoronaphthalen-1-yl)-1-fluoro-4-methyl-13-(((3S,7aS)-3-(((6-(trifluoromethyl)pyrimidin-4-yl)oxy)methyl)tetrahydro-1H-pyrrolizin-7a(5H)-yl)methoxy)-5,6,6a,7,8,9,10,11-octahydro-4H-3,11a,12,14,15-pentaaza-7,10-methanocyclohepta[4,5]cycloocta[1,2,3-de]naphthalene] | 0.12 nM | 1.2 nM
C#Cc1c(F)ccc2cccc(-c3nc4c5c(nc(OC[C@@]67CCCN6[C@H](COC(C(F)(F)F)C(F)(F)F)CC7)nc5c3F)N3C[C@H]5CC[C@H](N5)[C@H]3CC4)c12 [Example 150, (5aR,6S,9R)-2-(8-ethynyl-7-fluoronaphthalen-1-yl)-1-fluoro-12-(((3S,7aS)-3-(((1,1,1,3,3,3-hexafluoropropan-2-yl)oxy)methyl)tetrahydro-1H-pyrrolizin-7a(5H)-yl)methoxy)-4,5,5a,6,7,8,9,10-octahydro-3,10a,11,13,14-pentaaza-6,9-methanonaphtho[1,8-ab]heptalene] | 0.2 nM | 47.2 nM
C#Cc1c(F)ccc2cc(O)cc(-c3nc4c5c(nc(OC[C@@]67CCCN6[C@H](COC(=O)N(C)C(F)(F)F)CC7)nc5c3F)N3C[C@H]5CC[C@H](N5)[C@H]3CO4)c12 [Example 45, ((3S,7aS)-7a-((((5aS,6S,9R)-2-(8-ethynyl-7-fluoro-3-hydroxynaphthalen-1-yl)-1-fluoro-5a,6,7,8,9,10-hexahydro-5H-4-oxa-3,10a,11,13,14-pentaaza-6,9-methanonaphtho[1,8-ab]heptalen-12-yl)oxy)methyl)hexahydro-1H-pyrrolizin-3-yl)methyl methyl(trifluoromethyl)carbamate] | 0.3 nM | 4 nM
C#Cc1c(F)ccc2cccc(-c3nc4c5c(nc(OC[C@@]67CCCN6C[C@H](F)C7)nc5c3F)N3C[C@H]5CC[C@H](N5)[C@H]3[C@H](C)C4)c12 [Example 184, (5R,5aR,6S,9R)-2-(8-ethynyl-7-fluoronaphthalen-1-yl)-1-fluoro-12-(((2R,7aS)-2-fluorotetrahydro-1H-pyrrolizin-7a(5H)-yl)methoxy)-5-methyl-4,5,5a,6,7,8,9,10-octahydro-3,10a,11,13,14-pentaaza-6,9-methanonaphtho[1,8-ab]heptalene] | 0.7 nM | 19 nM
C#Cc1c(F)ccc2cccc(-c3nc4c5c(nc(OCC6(CN7CCN(CC(F)(F)F)CC7)CC6)nc5c3F)N3C[C@H]5CC[C@H](N5)[C@@H]3[C@@H](C)C4)c12 [Example 101, (5S,5aS,6S,9R)-2-(8-ethynyl-7-fluoronaphthalen-1-yl)-1-fluoro-5-methyl-12-((1-((4-(2,2,2-trifluoroethyl)piperazin-1-yl)methyl)cyclopropyl)methoxy)-4,5,5a,6,7,8,9,10-octahydro-3,10a,11,13,14-pentaaza-6,9-methanonaphtho[1,8-ab]heptalene] | 12.7 nM | 175 nM
C#Cc1c(F)ccc2cc(O)cc(-c3nc4c5c(nc(OC[C@@]67CCCN6[C@H](COC(C(F)(F)F)(C(F)(F)F)C(F)(F)F)CC7)nc5c3F)N3C[C@H]5CC[C@H](N5)[C@H]3CC4)c12 [Example 63, 5-ethynyl-6-fluoro-4-((5aR,6S,9R)-1-fluoro-12-(((3S,7aS)-3-(((1,1,1,3,3,3-hexafluoro-2-(trifluoromethyl)propan-2-yl)oxy)methyl)tetrahydro-1H-pyrrolizin-7a(5H)-yl)methoxy)-4,5,5a,6,7,8,9,10-octahydro-3,10a,11,13,14-pentaaza-6,9-methanonaphtho[1,8-ab]heptalen-2-yl)naphthalen-2-ol] | 0.2 nM | 0.2 nM
C#Cc1c(F)ccc2cccc(-c3nc4c5c(nc(OC[C@@]67CCCN6[C@H](COc6cccc(S(F)(F)(F)(F)F)c6)CC7)nc5c3F)N3C[C@H]5CC[C@H](N5)[C@H]3CCC4)c12 [Example 118, (6aR,7S,10R)-2-(8-ethynyl-7-fluoronaphthalen-1-yl)-1-fluoro-13-(((3S,7aS)-3-((3-(pentafluoro-λ^6-sulfaneyl)phenoxy)methyl)tetrahydro-1H-pyrrolizin-7a(5H)-yl)methoxy)-5,6,6a,7,8,9,10,11-octahydro-4H-3,11a,12,14,15-pentaaza-7,10-methanocyclohepta[4,5]cycloocta[1,2,3-de]naphthalene] | 0.4 nM | 72.7 nM
C#Cc1c(F)ccc2cccc(-c3nc4c5c(nc(OC[C@@]67CCCN6[C@H](COc6cc(C(F)F)ncn6)CC7)nc5c3F)N3C[C@H]5CC[C@H](N5)[C@H]3CCC4)c12 [Example 205, (6aR,7S,10R)-13-(((3S,7aS)-3-(((6-(difluoromethyl)pyrimidin-4-yl)oxy)methyl)tetrahydro-1H-pyrrolizin-7a(5H)-yl)methoxy)-2-(8-ethynyl-7-fluoronaphthalen-1-yl)-1-fluoro-5,6,6a,7,8,9,10,11-octahydro-4H-3,11a,12,14,15-pentaaza-7,10-methanocyclohepta[4,5]cycloocta[1,2,3-de]naphthalene] | 0.06 nM | 2.2 nM
C#Cc1c(F)ccc2cccc(-c3nc4c5c(nc(OCC6(CN7CCC(OC(F)(F)F)CC7)CC6)nc5c3F)N3C[C@H]5CC[C@H](N5)[C@@H]3[C@@H](C)C4)c12 [Example 88, (5S,5aS,6S,9R)-2-(8-ethynyl-7-fluoronaphthalen-1-yl)-1-fluoro-5-methyl-12-((1-((4-(trifluoromethoxy)piperidin-1-yl)methyl)cyclopropyl)methoxy)-4,5,5a,6,7,8,9,10-octahydro-3,10a,11,13,14-pentaaza-6,9-methanonaphtho[1,8-ab]heptalene] | 36.5 nM | 255 nM
C#Cc1c(F)ccc2cc(O)cc(-c3nc4c5c(nc(OCC6(CN7CC[C@@H](C(F)(F)F)C7)CC6)nc5c3F)N3C[C@H]5CC[C@H](N5)[C@H]3CO4)c12 [Example 43, 5-ethynyl-6-fluoro-4-((5aS,6S,9R)-1-fluoro-12-((1-(((R)-3-(trifluoromethyl)pyrrolidin-1-yl)methyl)cyclopropyl)methoxy)-5a,6,7,8,9,10-hexahydro-5H-4-oxa-3,10a,11,13,14-pentaaza-6,9-methanonaphtho[1,8-ab]heptalen-2-yl)naphthalen-2-ol] | 0.6 nM | 5 nM
